Experiments:
[1] = target: T1, CatB3 (Cathepsin B-like 3) (Zea mays, UniProt A0A804QEY3); format: biochemical; settings: 0.5 mM inhibitor, substrate UmPR-1La-HA culture supernatant, 50 mM sodium acetate, 10 mM DTT, pH 5.5, 28 °C
T1 construct: gene LOC100283781; untagged, expressed with signal peptide in Nicotiana benthamiana by agroinfiltration, purified from apoplastic fluid by size exclusion

UmPR-1La (PR-1La) = target: T2, UmPR-1La (PR-1La) (Mycosarcoma maydis, UniProt A0A0D1E5M0); test: intrinsic tryptophan fluorescence; format: binding; settings: 0.25 µM protein, 50 mM sodium acetate pH 5.5, room temperature, 15 min
T2 construct: gene UMAG_01204; His-tagged full-length protein without signal peptide (PR-1La 24-279), expressed in E. coli Shuffle T7, Ni-NTA and size exclusion
T2 sequence (A0A0D1E5M0 entry or part of it): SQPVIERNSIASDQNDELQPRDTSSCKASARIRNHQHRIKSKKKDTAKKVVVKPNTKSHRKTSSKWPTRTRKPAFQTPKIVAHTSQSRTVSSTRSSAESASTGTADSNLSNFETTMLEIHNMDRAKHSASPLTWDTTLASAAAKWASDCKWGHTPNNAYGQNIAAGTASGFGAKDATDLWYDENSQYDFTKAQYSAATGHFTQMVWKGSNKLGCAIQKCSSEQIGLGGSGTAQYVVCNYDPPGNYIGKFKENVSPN

T1 sequence (A0A804QEY3 entry or part of it): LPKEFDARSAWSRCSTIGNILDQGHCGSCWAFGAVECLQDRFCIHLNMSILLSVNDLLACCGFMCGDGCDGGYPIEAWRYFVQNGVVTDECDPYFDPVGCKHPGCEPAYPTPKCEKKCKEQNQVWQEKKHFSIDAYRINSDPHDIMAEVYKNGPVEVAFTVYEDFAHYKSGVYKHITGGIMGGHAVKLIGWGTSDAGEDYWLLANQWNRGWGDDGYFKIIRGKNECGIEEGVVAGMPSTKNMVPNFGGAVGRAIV

CC(C)C[C@H](NC(=O)[C@H]1O[C@@H]1C(=O)O)C(=O)NCCCCN=C(N)N [E64]
inhibition of UmPR-1La cleavage (immunoblot) [1]: The activity of CatB3 was blocked by E64 (Fig. 5b)

COc1cc(/C=C/CO)ccc1O [coniferyl alcohol]
intrinsic tryptophan fluorescence (UmPR-1La (PR-1La)): both versions of the PR-1La proteins responded to CA by causing a shift

COc1cc(/C=C/C(=O)O)ccc1O [ferulic acid]
intrinsic tryptophan fluorescence (UmPR-1La (PR-1La); 5 µM or varied ligand, caveolin-binding motif site): the intrinsic fluorescence intensity of PR-1La decreased in an FA-concentration-dependent manner
